Test results from ChEMBL document CHEMBL5050850, “Compositions and methods of using the same for treatment of neurodegenerative and mitochondrial disease” (2020).
≈ marks a conversion by molar mass, not a printed value.

Legend:
[1] = Kidney concentration in mouse at 10 mg/kg, po measured at 0.5 hrs; type: ADME, organism-based; conditions: read-out: Drug uptake
[2] = MRT (infinity) in mouse at 10 mg/kg, po; type: ADME, organism-based; conditions: in vivo
[3] = Half-life in mouse at 10 mg/kg, po; type: ADME, organism-based; conditions: in vivo
[4] = Kidney concentration in mouse at 50 mg/kg, po measured at 1 hr; type: ADME, organism-based; conditions: read-out: Drug uptake
[5] = Initial plasma concentration in mouse at 10 mg/kg, po; type: ADME, organism-based; conditions: in vivo
[6] = Induction of mitophagy in human HeLa MKYP cells treated with FCCP/oligomycin for 6 hrs and measured by FACS analysis; type: functional, cell-based
[7] = Apparent volume of distribution in mouse at 10 mg/kg, po; type: ADME, organism-based; conditions: in vivo
[8] = AUC (infinity) in mouse at 1 mg/kg, iv; type: ADME, organism-based; parameters: route intravenous, time infinity, dose 1 mg/kg; conditions: in vivo
HeLa [9] = assay: Cytotoxicity against human HeLa MKYP cells assessed as cell death at 25 uM treated with FCCP/oliogmycin and measured DAPI staining method assay relative to control; type: toxicity, cell-based
[10] = AUC (infinity) in mouse at 10 mg/kg, po; type: ADME, organism-based; parameters: route oral, time infinity, dose 10 mg/kg; conditions: in vivo
[11] = Half-life in mouse at 50 mg/kg, po; type: ADME, organism-based; conditions: in vivo
[12] = Kidney concentration in mouse at 10 mg/kg, po measured at 2 hrs; type: ADME, organism-based; conditions: read-out: Drug uptake
HeLa [13] = assay: Cytotoxicity against human HeLa MKYP cells assessed as percentage of DAPI-positive cells at 50 uM and measured by DAPI staining method; type: toxicity, cell-based
[14] = Brain concentration in mouse at 50 mg/kg, po measured at 1 hr; type: ADME, organism-based; conditions: read-out: Drug uptake
[15] = Observed AUC in mouse at 1 mg/kg, iv; type: ADME, organism-based; parameters: dose 1 mg/kg; conditions: in vivo
[16] = Brain concentration in mouse at 10 mg/kg, po measured at 0.5 hrs; type: ADME, organism-based; conditions: read-out: Drug uptake
[17] = Apparent volume of distribution in rat at 10 mg/kg, po; type: ADME, organism-based; conditions: in vivo
[18] = AUC in mouse at 10 mg/kg, po; type: ADME, organism-based; parameters: dose 10 mg/kg; conditions: in vivo
[19] = Brain concentration in mouse at 10 mg/kg, po measured at 1 hr; type: ADME, organism-based; conditions: read-out: Drug uptake
HeLa [20] = assay: Cytotoxicity against human HeLa MKYP cells assessed as cell death at 25 uM and measured DAPI staining method assay relative to control; type: toxicity, cell-based
[21] = Kidney concentration in mouse at 50 mg/kg, po measured at 0.5 hrs; type: ADME, organism-based; conditions: read-out: Drug uptake
[22] = MRT (infinity) in rat at 1 mg/kg, iv; type: ADME, organism-based; conditions: in vivo
[23] = Cmax in mouse at 50 mg/kg, po; type: ADME, organism-based; parameters: route oral, dose 50 mg/kg; conditions: in vivo
[24] = Plasma concentration in mouse at 10 mg/kg, po measured at 2 hrs; type: ADME, organism-based
[25] = AUC (extrapolated) in rat at 1 mg/kg, iv; type: ADME, organism-based; conditions: in vivo
[26] = Oral bioavailability in mouse at 50 mg/kg; type: ADME, organism-based; conditions: in vivo
[27] = Cmax in mouse at 1 mg/kg, iv; type: ADME, organism-based; parameters: route intravenous, dose 1 mg/kg; conditions: in vivo
[28] = AUC (infinity) in rat at 1 mg/kg, iv; type: ADME, organism-based; parameters: route intravenous, time infinity, dose 1 mg/kg; conditions: in vivo
[29] = Solubility of compound in PBS; type: physicochemical
[30] = Induction of mitophagy in human HeLa MKYP cells treated at 6.3 uM with FCCP/oligomycin for 6 hrs and measured by FACS analysis relative to control; type: functional; conditions: 6 h, 6.3 µM
[31] = AUC (extrapolated) in mouse at 1 mg/kg, iv; type: ADME, organism-based; conditions: in vivo
[32] = Plasma concentration in mouse at 10 mg/kg, po measured at 0.5 hrs; type: ADME, organism-based
[33] = Initial plasma concentration in rat at 10 mg/kg, po; type: ADME, organism-based; conditions: in vivo
[34] = Plasma concentration in mouse at 50 mg/kg, po measured at 2 hrs; type: ADME, organism-based
[35] = AUC (infinity) in rat at 10 mg/kg, po; type: ADME, organism-based; parameters: time infinity, route oral, dose 10 mg/kg; conditions: in vivo
[36] = Plasma concentration in mouse at 10 mg/kg, po measured at 1 hr; type: ADME, organism-based
[37] = Oral bioavailability in mouse at 10 mg/kg; type: ADME, organism-based; conditions: in vivo
[38] = Half-life in rat at 10 mg/kg, po; type: ADME, organism-based; conditions: in vivo
[39] = Brain concentration in mouse at 50 mg/kg, po measured at 2 hrs; type: ADME, organism-based; conditions: read-out: Drug uptake
[40] = MRT (infinity) in mouse at 1 mg/kg, iv; type: ADME, organism-based; conditions: in vivo
[41] = Kidney concentration in mouse at 10 mg/kg, po measured at 1 hr; type: ADME, organism-based; conditions: read-out: Drug uptake
[42] = Plasma concentration in mouse at 50 mg/kg, po measured at 1 hr; type: ADME, organism-based
[43] = AUC in mouse at 50 mg/kg, po; type: ADME, organism-based; parameters: dose 50 mg/kg; conditions: in vivo
[44] = Observed AUC in mouse 50 mg/kg, po; type: ADME, organism-based; parameters: dose 50 mg/kg; conditions: in vivo
[45] = Kidney concentration in mouse at 50 mg/kg, po measured at 2 hrs; type: ADME, organism-based; conditions: read-out: Drug uptake
[46] = Cmax in mouse at 10 mg/kg, po; type: ADME, organism-based; parameters: route oral, dose 10 mg/kg; conditions: in vivo
[47] = AUC in mouse at 1 mg/kg, iv; type: ADME, organism-based; parameters: dose 1 mg/kg; conditions: in vivo
[48] = Ratio of highest compound concentration with no observable mitotoxicity to EC50 of compound to induce mitophagy in human HeLa MKYP cells; type: functional
[49] = Brain concentration in mouse at 10 mg/kg, po measured at 2 hrs; type: ADME, organism-based; conditions: read-out: Drug uptake
[50] = Brain concentration in mouse at 50 mg/kg, po measured at 0.5 hrs; type: ADME, organism-based; conditions: read-out: Drug uptake
[51] = Plasma concentration in mouse at 50 mg/kg, po measured at 0.5 hrs; type: ADME, organism-based

## FC(F)(F)c1cc2c(NC3CCCc4ccccc43)ncnc2[nH]1 (stereo in doubt)
[1]
  concentration at 0.5 h: 1050 ng/g
[2]
  MRT inf: 17.4 h
[3]
  t1/2: 2 h
[4]
  concentration at 1 h: 11500 ng/g
[5]
  C0: 0.5 ng/mL
[6]
  EC50: 0.44 µM
[7]
  Vz: 5.4 L/kg
[8]
  AUC(0-inf): 0.487 µg·h/mL
HeLa [9]
  Activity: 10.7%
[10]
  AUC: 0.8033 µg·h/mL
[11]
  half-life: 3.9 h
[12]
  concentration at 2 h: 893 ng/g
HeLa [13]
  Activity: 2.1%
[14]
  concentration at 1 h: 6370 ng/g
[15]
  AUC: 1400 nM·h
[16]
  concentration at 0.5 h: 526 ng/g
[17]
  Vz: 2.2 L/kg
[18]
  AUC: 2600 nM·h
[19]
  concentration at 1 h: 737 ng/g
HeLa [20]
  Activity: 2.59%
[21]
  concentration at 0.5 h: 6430 ng/g
[22]
  MRT inf: 2 h
[23]
  Cmax: 9.8 µM
[24]
  concentration at 2 h: 146 ng/g
[25]
  %AUCextra: 2.5%
[26]
  bioavailability: 37.9%
[27]
  Cmax: 1.45 µM
[28]
  AUC(0-inf): 0.838 µg·h/mL
[29]
  solubility: 1 µM (≈ 0.332 µg/mL)
[30]
  Activity: 55.5%
[31]
  %AUCextra: 1.1%
[32]
  concentration at 0.5 h: 372 ng/g
[33]
  C0: 2.6 ng/mL
[34]
  concentration at 2 h: 1420 ng/g
[35]
  AUC: 7.3484 µg·h/mL
[36]
  concentration at 1 h: 276 ng/g
[37]
  bioavailability: 17.4%
[38]
  t1/2: 3.7 h
[39]
  concentration at 2 h: 3980 ng/g
[40]
  MRT inf: 0.7 h
[41]
  concentration at 1 h: 1290 ng/g
[42]
  concentration at 1 h: 2080 ng/g
[43]
  AUC: 35500 nM·h
[44]
  AUC: 27400 nM·h
[45]
  concentration at 2 h: 7480 ng/g
[46]
  Cmax: 1.08 µM
[47]
  AUC: 1500 nM·h
[48]
  Ratio: 40.02
[49]
  concentration at 2 h: 435 ng/g
[50]
  concentration at 0.5 h: 3340 ng/g
[51]
  concentration at 0.5 h: 1900 ng/g
